{"source": "patent US11925623B2", "about": "(priority 2020, dated 2024)", "key": {"[1]": {"system": "i.c.v Aβ1-42 injected nontransgenic mice", "assay": "T-maze spontaneous alternation in i.c.v Aβ1-42 injected mice", "assay_type": "in vivo, C57/BL6 mice", "method": "(§1) Eight-week old Wild type C57/BL6 mice were treated i.p. with sulfanegen at 50 and 100 mg/kg dose during the entire duration of experiment. The mice were injected with intracerebroventricular (i.c.v) Aβ1-42 on day 3 after initiation of drug treatment (1 nmol/mouse). Behavioral test (T-maze) was conducted 6 days after Aβ1-42 injection, which was followed by euthanization on day 8. Biochemical analysis of the collected brain tissues was conducted using ELISA method for quantitation of Aβ1-42, and immunohistochemical analysis for GFAP (inflammatory marker). The brain tissues were also analyzed for oxidative stress markers (GSH assay, see Example 5; and protein carbonyls, see Example 6). • Groups: • Saline control N=12, (N=5 study 2; N=7 study 3) • Abeta control N=15, (N=7 study 2; N=8 study 3) • Sulfanegen, 50 mg/kg, N=7 • Sulfanegen, 100 mg/kg, N=7\nSpontaneous alternation in a T-maze was used to assess working memory abilities, based on the innate tendency of mice to alternate their choice of a goal arm based on their recall of the initial choice. The T-maze used was made of black plexiglass as per dimensions stated in Nat Protocol, 2006 [PMID: 17406205, www.nature.com/articles/nprot.2006.2]. Mice were placed in the start arm with the central divider in place so that when entering either of the goal arms the mice were not able to see the other one. The mice were allowed to move freely in the whole hall, and then, after being confined to the start arm for 30 seconds, the animal was allowed to move freely for a total of 15 arm entrees. […] The alternation percentage was calculated by dividing the number of times the animal entered alternating arms by 14 (free-choice trials). […] Ratio of right and left arm entries was calculated to determine spatial preference of mice in different treatment groups. The data were analyzed using repeated measures analysis of variance (ANOVA) using Dunnett test."}, "[2]": {"system": "IL-6", "assay": "IL-6 ELISA of brain tissue, i.c.v Aβ1-42 mice", "assay_type": "in vivo, C57/BL6 mice", "method": "as §1\nIL-6 ELISA (BMS603HS, invitrogen) was used. Brain tissue samples were assayed in duplicate. Briefly, the strips provided in the kit were washed with 400 μL wash buffer (lx) twice. 50 μL of brain homogenates or standards were added to 50 μL sample diluent (PBS) in each well. […] The samples were read at 450 nm (reference wavelength 620 nm). Quantification of IL-6 in each well was conducted using the standard curve and was normalized to the weight of brain tissue."}, "[3]": {"system": "H2S", "assay": "Zn-agar entrapment H2S measurement in cell culture", "assay_type": "cell-based", "method": "To sterilized agar solution (1% w/v) was added 45 mM Zn Acetate and 4.5 mM NaOH (both prepared in sterile water). The solution was then applied to the non-adherent surface of the empty flasks and allowed to solidify. Cells were seeded in T-25 flask at 1 million cells/flask overnight. Cells were treated with sulfanegen at 0-500 μM concentrations and incubated for 6 hours. After the incubation period, the media was removed and 2 ml N,N-dimethyl-p-phenylenediamine chloride was added to the agar layer and incubated at RT for 10 mins. This was followed by addition of 400 μL of ferrous chloride and incubation for 20 minutes. The solution was then aliquoted into 96-well plate and absorbance was measured at 670 nm. The release of H2S was measured using a standard curve generated with NaSH under similar experimental conditions (incubation with NaSH was done for 1 hr)."}, "[4]": {"assay": "Brain permeability: brain and plasma levels after i.p. dosing (LC-MS/MS)", "assay_type": "in vivo, mouse", "settings": "50 mg/kg i.p.", "method": "To ascertain the distribution of sulfanegen to the brain, plasma and brain samples were harvested from intraperitoneally treated animal groups and analyzed via LC-MS/MS. A saline solution of sulfanegen was injected into the mouse peritoneum at a dose of 50 mg/kg. Specifically, samples were collected at 0.25, 0.5, 1, 2, and 4 h after the drug administration. […] Samples were immediately centrifuged at 3000 rpm for 10 min at 4° C., and the separated top plasma layer was transferred into a new tube. Blood samples were stored at −80° C. until LC-MS/MS analysis. For brain samples, brain tissue was extracted from the animal and washed with copious volumes of ice-cold D-PBS for removal of blood from the sample. The brain samples were homogenized by adding 1:5 (w/v) of ice-cold D-PBS into the tube and using a mechanical homogenizer on them. Homogenized brain samples were stored at −80° C."}, "[5]": {"system": "TNFα", "assay": "TNFα ELISA of brain tissue, i.c.v Aβ1-42 mice", "assay_type": "in vivo, C57/BL6 mice", "settings": "50 and 100 mg/kg i.p.; no difference between doses", "method": "as §1\nTNFα ELISA kit (BMS607HS, invitrogen) was used. Brain tissue samples were assayed in duplicate. Briefly, the strips provided in the kit were washed with 400 μL wash buffer (lx) twice. 50 μL of brain homogenates or standards were added to 50 μL sample diluent (PBS) in each well. […] The samples were read at 450 nm. Quantification of TNFα in each well was conducted using the standard curve and was normalized to the weight of brain tissue."}}, "note": "“Also recorded” adds a separate entry of the source.", "data": [{"smiles": "O=C(O)C1(O)CSC(O)(C(=O)O)CS1", "note": "(stereo not drawn) [sulfanegen]", "values": [{"measurement": "cognitive behavior / cognitive impairment by T-maze", "setting": "[1]; 50 and 100 mg/kg i.p.", "result": "marked improvement; also recorded: prevented cognitive impairment"}, {"measurement": "T-maze alternation and repetition behavior", "setting": "[1]; 50 and 100 mg/kg i.p., 6 days after Aβ1-42 injection", "result": "significant improvement"}, {"measurement": "spatial bias or anxiety-like behavior in T-maze", "setting": "[1]; i.p. sulfanegen-treated mice", "result": "did not exhibit spatial bias or anxiety-like behavior"}, {"measurement": "brain IL-6 level", "setting": "[2]; 50 mg/kg i.p.", "result": "reduction of increased IL-6 levels; also recorded: significant difference"}, {"measurement": "brain IL-6 level", "setting": "[2]; 100 mg/kg i.p.", "result": "Increase in IL-6"}, {"measurement": "H2S release", "setting": "[3]; 500 μM as compared to 250 μM, 6 h", "result": "decrease"}, {"measurement": "H2S release", "setting": "[3]; up to 250 μM at 6 h, vs vehicle control", "result": "dose-dependent increase"}, {"measurement": "crossing of the blood brain barrier (BBB)", "setting": "[4]", "result": "able to cross the blood brain barrier"}, {"measurement": "AUC, brain", "setting": "[4]; samples 0.25-4 h", "result": 51.495, "unit": "µM·h"}, {"measurement": "Kp", "setting": "[4]; mouse, brain/plasma, intraperitoneal, read-out: B/P Ratio (Brain-Plasma ratio)", "result": 0.751}, {"measurement": "AUC", "setting": "[4]; mouse, plasma, ip, samples 0.25-4 h", "result": 68.6, "unit": "µM·h"}, {"measurement": "brain TNFα level", "setting": "[5]", "result": "significant decrease; also recorded: significant difference"}]}]}
